Measured values from US8071654B2, “Inhibitors of thromboxane formation and action” (priority 2000, dated 2011).

Assays:
Assay type in all cases: cell-based
TX synthase = biological target: T1, TX synthase (Homo sapiens, UniProt P24557); assay: collagen-evoked TxB2 (and HHT) formation in washed human platelets, HPLC; conditions: for TX enzyme activity (% of control values, mean ± SD): n = 3, TxB2 and HHT
T1 construct: endogenous in cells; host or cells: washed human platelets
T1 sequence (P24557 1-533): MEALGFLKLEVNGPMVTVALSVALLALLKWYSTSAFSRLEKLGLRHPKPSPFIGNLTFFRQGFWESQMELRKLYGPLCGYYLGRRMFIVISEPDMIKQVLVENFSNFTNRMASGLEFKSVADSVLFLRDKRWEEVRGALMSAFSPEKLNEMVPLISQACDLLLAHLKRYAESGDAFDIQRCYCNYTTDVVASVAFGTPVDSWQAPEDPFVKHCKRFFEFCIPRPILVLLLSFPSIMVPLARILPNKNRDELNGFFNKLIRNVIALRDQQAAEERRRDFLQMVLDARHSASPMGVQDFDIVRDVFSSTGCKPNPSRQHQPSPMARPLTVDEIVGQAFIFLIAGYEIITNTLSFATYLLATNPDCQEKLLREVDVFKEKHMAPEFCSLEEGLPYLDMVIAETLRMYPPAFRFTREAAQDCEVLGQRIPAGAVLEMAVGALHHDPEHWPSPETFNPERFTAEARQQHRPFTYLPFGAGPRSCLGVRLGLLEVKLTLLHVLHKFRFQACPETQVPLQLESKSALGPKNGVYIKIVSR
Experimental: 0.5 ml of platelet suspension was added to siliconized glass tubes (four at a time) and heated with magnetic stirring to 37° for 1 min in a platelet aggregometer (PAP-4C). Either vehicle alone (ethanol, 1 μl) or hepoxilin analog was then added, followed two min later by agonist (collagen: 2 μg; PGH2: 100 ng/0.5 ml; U46619: 10 ng/0.5 ml or I-BOP: 2 ng/0.5 ml). The response was recorded for the next 5 min. In experiments where analysis of TxB2 and HHT were to be made by HPLC, the platelet suspension at the end of the experiment was diluted with ethyl acetate, 100 ng of prostaglandin B1 was added as internal standard, and the mixture was acidified to pH 3 with 0.1 N HCl. After centrifugation, the organic layer was separated, washed twice with water to neutrality, and evaporated to dryness. Half of the sample was taken and was resuspended in 1 ml ethyl acetate containing 20 μg ADAM reagent, and was left in the dark for 2 h (38). The solvent was then evaporated and the residue was acetylated with a solution of pyridine/acetic anhydride (3/1, v/v) during 16 h at 23°. The reagents were evaporated to dryness and the residue was resuspended in acetonitrile/water for HPLC analysis. In experiments where the conversion of tritiated PGH2 was to be monitored, the procedure described above was repeated with tritiated PGH2 instead of unlabeled PGH2. After extraction of the sample as described above, the radiolabeled compounds were analyzed by TLC. Dose response curves for varying amounts of test compounds were generated and the data expressed as % inhibition of collagen-induced platelet aggregation. Each point was investigated 5 times and statistical analysis of the data was carried out using Macintosh Statview statistical software.
Measurement of eicosanoids formed by platelets during treatment with collagen or the TP receptor agonists in the presence or absence of PBT-3 was carried out by HPLC after appropriate derivatization with a fluorescent tag (anthracyl diazomethane—ADAM) which forms a fluorescent ester (44). The method was adapted to measure the following compounds: TxB2, HHT, 12-HETE and M. The platelet suspension at the end of the experiment was mixed with ethyl acetate, 100 ng of prostaglandin B1 was added as internal standard and the mixture was acidified to pH 3 with 0.1 N HCl. After centrifugation, the organic layer was separated, washed twice with water to neutrality, and evaporated to dryness. The residue was resuspended in ethyl acetate and half of the sample was taken. It was diluted to 0.2 ml with ethyl acetate containing 20 μg ADAM reagent, and was left in the dark for 2 h. The solvent was then evaporated and the residue was acetylated with a solution of pyridine/acetic anhydride (3/1, v/v) for 16 h at 23°. The reagents were evaporated to dryness and the residue was resuspended in acetonitrile/water for HPLC analysis. Dose response curves for varying amounts of test compounds were generated and the data were expressed as % inhibition of agonist-induced platelet aggregation. Each point was investigated 3 times and statistical analysis of the data was carried out using Macintosh Statview statistical software.
Analysis of the anthryl (ADAM)-acetate derivative of TxB2, HHT and 12 HETE in the extracted platelet samples was carried out on a Hewlett Packard (1100 series) HPLC to which was attached a Shimadzu fluorescent detector (RF-10AXL). The detector was operated with excitation at 364 nm, emission at 411 nm. Chromatographic separation of the compound was carried out on a Waters C18 Novapak column (3.9×300 mm) using acetonitrile/water 80/20 at injection with a linear gradient to 100% acetonitrile during 20 min. TLC separation of tritiated platelet extracts was carried out on 20 cm silica gel G glass plates (Brinkman), with chloroform/methanol/acetic acid/water (90/9/1/0.65, v/v) as developing solvent in a paper lined glass tank at 23°. […]

human platelets = assay: PGH2-evoked platelet aggregation; conditions: PGH2 100 ng; PBT-3 at various doses before PGH2
Experimental: (§1) Venous blood was obtained from healthy human subjects who had not taken NSAID's for at least two weeks. Blood was drawn into plastic syringes containing ACD. It was immediately centrifuged at 23° at 200×g for 15 min. The platelet rich plasma was transferred into fresh plastic tubes and centrifuged at 400×g for 5 min. The supernatant was discarded and the platelet sediment was resuspended in fresh medium containing NaCl (137 mM), KCl (1 mM), NaH2PO4, glucose (5.5 mM), HEPES (20 mM) and CaCl2 (1 mM) and allowed to stand at room temperature for 30 min. A platelet count was made, which determined the volume of platelet suspension needed to make up 350×10^6 cells for each measurement. The aliquot was diluted with medium to make 0.5 ml/assay/cuvette. […]
(§2) 0.5 ml of platelet suspension was added to siliconized glass tubes (four at a time) and heated with magnetic stirring to 37° for 1 min in a platelet aggregometer (PAP-4C). […] The response was recorded for the next 5 min. […] In experiments where the conversion of tritiated PGH2 was to be monitored, the procedure described above was repeated with tritiated PGH2 instead of unlabeled PGH2. After extraction of the sample as described above, the radiolabeled compounds were analyzed by TLC. Dose response curves for varying amounts of test compounds were generated and the data expressed as % inhibition of collagen-induced platelet aggregation. […]

TP receptor = biological target: T2, TP receptor (Homo sapiens, UniProt P21731); assay: platelet aggregation evoked by I-BOP; conditions: I-BOP 2 ng/0.5 ml; read-out: IC50 for inhibition of aggregation evoked by I-BOP
T2 construct: endogenous in cells; host or cells: washed human platelets
T2 sequence (P21731 1-343): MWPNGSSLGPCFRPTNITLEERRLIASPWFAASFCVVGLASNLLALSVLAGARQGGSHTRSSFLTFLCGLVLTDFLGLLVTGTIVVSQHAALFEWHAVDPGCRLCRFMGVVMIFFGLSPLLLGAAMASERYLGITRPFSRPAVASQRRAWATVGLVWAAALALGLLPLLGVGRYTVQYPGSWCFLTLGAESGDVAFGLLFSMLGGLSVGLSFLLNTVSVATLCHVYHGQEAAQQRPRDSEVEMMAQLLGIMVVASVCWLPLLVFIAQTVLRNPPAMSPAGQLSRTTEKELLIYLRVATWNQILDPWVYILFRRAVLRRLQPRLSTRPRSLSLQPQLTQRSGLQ
Experimental: as §1, §2

## CCCCC/C=C\CC1CC1[C@@H](O)/C=C\C/C=C\CCCC(=O)OC (stereo partly drawn) [PBT-3, 10(S)-hydroxy-11,12-cyclopropyl-eicosa-5Z,8Z,14Z-trienoic acid methyl ester]
TX synthase; PBT-3 0.05 μM
  TX enzyme activity (% of control values, mean ± SD): 94.2 ± 15.2^NS % of control
TX synthase; PBT-3 0.30 μM
  TX enzyme activity (% of control values, mean ± SD): 65.7 ± 6.0 % of control
TX synthase; PBT-3 0.60 μM
  TX enzyme activity (% of control values, mean ± SD): 41.0 ± 4.7 % of control
TX synthase; PBT-3 3.00 μM
  TX enzyme activity (% of control values, mean ± SD): 29.9 ± 6.7 % of control
TX synthase; Table 1, last column
  inhibition of TxB2 formation in platelets, in words: significantly inhibited
TX synthase; washed human platelets, read-out: IC50 for block of collagen-evoked formation of thromboxane
  IC50: 800 nM
Human platelets
  inhibition of PGH2-evoked aggregation: inhibited the second wave of aggregation
TP receptor
  IC50: 60 nM
